The record followed here is PMC2675279 (The Journal of general virology, 2009).

For the assay, the system named is splenocytes from BALB/c mice infected with tk--HSV-2. In words: IFN-γ ELISPOT, splenocytes after intravaginal tk--HSV-2 infection. The settings on record: splenocytes from individual BALB/c mice after non-lethal intravaginal infection with live attenuated HSV-2, single peptides at 1 μg mL^-1 (Concanavalin A 2.5 μg mL^-1), means of duplicates. It counts as cell-based.

As for Concanavalin A [reference compound], the “SFU per 10^6 responder cells, tk--HSV-2 infected mice” value (“SFU per 10^6 responder cells” for short) is on record as “TNTC ^‡”.
Take HTALATVTLKYAL [UL47 509-521]: the “SFU per 10^6 responder cells” value is 25 SFU per 10^6 responder cells.
In the case of LLYWPGVRALLGR [UL47 369-381], the “SFU per 10^6 responder cells” value was 21 SFU per 10^6 responder cells.
Next, YAGRMTYIATGAL [UL47 389-401]: 43 SFU per 10^6 responder cells.
